What all share (type): cell-based
A short description of data set [1]: Cytotoxicity in PHH natural infection assay (Cell Counting Kit-8). As to conditions: HBV-infected primary human hepatocytes, CCK8. The essentials:
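HBV-infected primary human hepatocytes (200 GE/cell, 4% PEG8000, 24 h), then sandwich-cultured 72 h. Cells dosed at varying concentrations for two 72-hour cycles, with medium refreshed. Cytotoxicity read by CCK-8 at end of treatment.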
(Formazan colour is commonly taken as a measure of viable cells.)

Data set [2] concerns HBsAg. Kind of data set: PHH HBV natural infection assay, HBsAg (alphalisa). As to conditions: Hepatitis B virus, Hepatocyte, read-out: HBsAg IC50. The essentials:
(§1)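 Primary human hepatocytes infected with HBV at 200 GE/cell plus 4% PEG8000 for 24 h, then sandwich-cultured 72 h in medium with 1% DMSO. Compound applied twice at 72-h intervals; supernatant HBsAg and HBeAg quantified by AlphaLISA.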
Background: Bead proximity is the source of the signal in Alpha formats.

In data set [3] the test system is HBeAg. Description: PHH HBV natural infection assay, HBeAg (alphalisa). The conditions noted are these: Hepatitis B virus, Hepatocyte, read-out: HBeAg IC50. The essentials:
as §1

Where only a bound is given, the exact number is not on record here.

For the compound `C[S+]([O-])c1ccc(C(=O)NC2CCC3(CC2)CCN(c2nc4cc(Cl)ccc4o2)CC3)o1` (stereo not drawn) [Example 116, N-[3-(5-chloro-1,3-benzoxazol-2-yl)-3-azaspiro[5.5]undecan-9-yl]-5-methylsulfinyl-furan-2-carboxamide], in data set [1], the half-maximal cytotoxic concentration (CC50) – broadly, the concentration giving 50% cytotoxicity – at 144 h amounted to 68500 nM. Also, the half-inhibitory concentration (IC50) (in general, the midpoint of a concentration-inhibition curve) in data set [2] came out at 2860 nM; in data set [3], 2340 nM.
In the same order, the values of `CCS(=O)(=O)c1ccc(C(=O)NC2CCC3(CC2)CCN(c2nc4cc(Cl)ccc4o2)CC3)o1` [Example 117, N-[3-(5-chloro-1,3-benzoxazol-2-yl)-3-azaspiro[5.5]undecan-9-yl]-5-ethylsulfonyl-furan-2-carboxamide] are greater than 100000 nM, 2370 nM and 2910 nM.
For the compound `O=C(NC1CCC2(CC1)CCN(c1nc3cc(Cl)ccc3o1)CC2)c1ccnc(S(=O)(=O)C2CC2)c1` [Example 118, N-[3-(5-chloro-1,3-benzoxazol-2-yl)-3-azaspiro[5.5]undecan-9-yl]-2-cyclopropylsulfonyl-pyridine-4-carboxamide], in data set [1], the half-maximal cytotoxic concentration (CC50) at 144 h is greater than 10000 nM. The IC50 in data set [2] worked out at 2370 nM; in data set [3], 2360 nM.
In the same order, the values of `N=S(=O)(CC1CC1)c1ccc(C(=O)NC2CCC3(CC2)CCN(c2nc4cc(Cl)ccc4o2)CC3)o1` (stereo not drawn) [Example 119, N-[3-(5-chloro-1,3-benzoxazol-2-yl)-3-azaspiro[5.5]undecan-9-yl]-5-(cyclopropylmethylsulfonimidoyl)furan-2-carboxamide] are 85800 nM, 1920 nM and 1360 nM.
On the same counts, the results for `N=S(=O)(c1ccc(C(=O)NC2CCC3(CC2)CCN(c2nc4cc(Cl)ccc4o2)CC3)o1)C1CC1` (stereo not drawn) [Example 120, N-[3-(5-chloro-1,3-benzoxazol-2-yl)-3-azaspiro[5.5]undecan-9-yl]-5-(cyclopropylsulfonimidoyl)furan-2-carboxamide] are 66600 nM, 1550 nM and 1430 nM.
In the same order, the values of `O=C(NC1CCC2(CC1)CCN(c1nc3cc(Cl)ccc3o1)CC2)c1ccc(S(=O)(=O)CC2CC2)o1` [Example 121, N-[3-(5-chloro-1,3-benzoxazol-2-yl)-3-azaspiro[5.5]undecan-9-yl]-5-(cyclopropylmethylsulfonyl)furan-2-carboxamide] are greater than 100000 nM, 1540 nM and 1160 nM.
In data set [1], `O=C(NC1CCC2(CC1)CCN(c1nc3cc(Cl)ccc3o1)CC2)c1ccc(S(=O)(=O)C2CC2)o1` [Example 122, N-[3-(5-chloro-1,3-benzoxazol-2-yl)-3-azaspiro[5.5]undecan-9-yl]-5-cyclopropylsulfonyl-furan-2-carboxamide] registered a CC50 at 144 h greater than 100000 nM. Moreover, the results for the concentration for half-maximal inhibition (IC50) in data set [2] and in data set [3] were 384 nM and 473 nM, respectively.
On the same counts, the results for `O=C(NC1CC2CN(c3nc4cc(Cl)ccc4o3)CC2C1)c1ccc(C(F)(F)F)o1` (stereo not drawn) [Example 123, N-[2-(5-chloro-1,3-benzoxazol-2-yl)-3,3a,4,5,6,6a-hexahydro-1H-cyclopenta[c]pyrrol-5-yl]-5-(trifluoromethyl)furan-2-carboxamide] are greater than 100000 nM, 4810 nM and 5470 nM.
In the same order, the values of `O=C(NC1CC2CN(c3nc4cc(Cl)ccc4o3)CC2C1)C1CCS(=O)(=O)C1` (stereo not drawn) [Example 124, N-[2-(5-chloro-1,3-benzoxazol-2-yl)-3,3a,4,5,6,6a-hexahydro-1H-cyclopenta[c]pyrrol-5-yl]-1,1-dioxo-thiolane-3-carboxamide] are greater than 100000 nM, 6590 nM and 13000 nM.
In the same order, the values of `O=C(NC1C2CN(c3nc4cc(Cl)ccc4o3)CC21)c1ccc(C(F)(F)F)o1` (stereo not drawn) [Example 125, N-[3-(5-chloro-1,3-benzoxazol-2-yl)-3-azabicyclo[3.1.0]hexan-6-yl]-5-(trifluoromethyl)furan-2-carboxamide] are greater than 100000 nM, 4740 nM and 5410 nM.

Values taken from patent publication US20230416238A1, “N-[(1,3-BENZOXAZOL-2-YL)-HETEROCYCLE]AMIDE DERIVATIVES FOR THE TREATMENT AND PROPHYLAXIS OF HEPATITIS B VIRUS INFECTION” (Hoffmann-La Roche Inc., priority 2020, published 2023).
